Experimental data as given in patent US20080261863A1 (priority 2004, published 2008).

Tests used:
[1] = system: blood pressure in Male Wistar rats; test: Measurement of blood pressure in anesthetized rats; assay type: in vivo, rat; details: FIG. 2, percentage of mean blood pressure of vehicle-treated rats
Experimental: (§1) Blood pressure in rats was measured following administration of either non-PEGylated or PEGylated VPAC2 agonist peptides. Blood pressure was measured as follows: Male Wistar rats were anesthetized with pentobarbital (55 mg/kg, i.p.) and the right carotid artery and jugular vein were cannulated. The carotid cannula was connected to the Biopac System (Harvard Apparatus Co., Harvard, Mass.) for continuous monitoring of blood pressure and heart rate. Vehicle or peptide was administered by injection through the jugular vein catheter.

[2] = Measurement of blood pressure in anesthetized rats; assay type: in vivo, rat; details: male, Wistar, rat, in vivo; intravenous, rats; read-out: ED50 blood pressure lowering
Experimental: as §1

VPAC2 receptor = target: T1, VPAC2 receptor (Homo sapiens, UniProt P41587); test: Cyclic AMP SPA in CHO cells expressing VPAC2; assay type: cell-based; details: cAMP in cells overexpressing the VPAC2 receptor
T1 construct: expressed in transfected cells; host or cells: CHO cells under hygromycin and Geneticin selection
T1 sequence (P41587 24-438): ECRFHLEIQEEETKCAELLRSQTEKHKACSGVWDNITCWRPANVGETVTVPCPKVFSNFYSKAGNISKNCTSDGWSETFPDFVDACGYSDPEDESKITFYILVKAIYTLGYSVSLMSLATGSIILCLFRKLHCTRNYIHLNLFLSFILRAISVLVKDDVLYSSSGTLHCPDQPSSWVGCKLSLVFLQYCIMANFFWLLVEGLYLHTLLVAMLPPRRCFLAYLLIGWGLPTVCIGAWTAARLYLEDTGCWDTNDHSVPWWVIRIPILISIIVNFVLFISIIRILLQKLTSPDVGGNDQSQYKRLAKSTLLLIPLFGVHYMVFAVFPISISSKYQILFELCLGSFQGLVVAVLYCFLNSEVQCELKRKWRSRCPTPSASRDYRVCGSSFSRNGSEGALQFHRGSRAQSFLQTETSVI
Experimental: CHO cells expressing the VPAC2 peptide were plated in 96-well plates at 8×10^4 cells/well and grown at 37° C. for 24 hours in αMEM, nucleosides, glutamine (Gibco/BRL, Rockville, Md.), 5% FBS, 100 μg/mL Pen/Strep, 0.4 mg/mL hygromycin, and 1.5 mg/mL Geneticin (Gibco/BRL). The media was removed and the plates were washed with PBS. The cells were incubated with a peptide (in 10 mM Hepes, 150 mM NaCl, 5 mM KCl, 2.5 mM CaCl2, 1.2 mM KH2PO4, 1.2 mM MgSO4, 25 mM NaHCO3 (pH 7.4) with 1% BSA and 100 μM IBMX) for 15 min. at 37° C. Cyclic AMP in the cell extracts was quantitated using the cAMP SPA direct screening assay system (Amersham Pharmacia Biotech Inc., Piscataway, N.J.,). The amount of cAMP present in the lysates was determined following instructions provided with this kit. The amount of cAMP (in pmol) produced at each concentration of peptide was plotted and analyzed by nonlinear regression using Prizm software to determine the EC50 for each peptide.

VPAC1 = target: T2, VPAC1 (Homo sapiens, UniProt P32241); test: Cyclic AMP assay, VPAC1 agonist activity; assay type: cell-based
T2 sequence (P32241 31-457): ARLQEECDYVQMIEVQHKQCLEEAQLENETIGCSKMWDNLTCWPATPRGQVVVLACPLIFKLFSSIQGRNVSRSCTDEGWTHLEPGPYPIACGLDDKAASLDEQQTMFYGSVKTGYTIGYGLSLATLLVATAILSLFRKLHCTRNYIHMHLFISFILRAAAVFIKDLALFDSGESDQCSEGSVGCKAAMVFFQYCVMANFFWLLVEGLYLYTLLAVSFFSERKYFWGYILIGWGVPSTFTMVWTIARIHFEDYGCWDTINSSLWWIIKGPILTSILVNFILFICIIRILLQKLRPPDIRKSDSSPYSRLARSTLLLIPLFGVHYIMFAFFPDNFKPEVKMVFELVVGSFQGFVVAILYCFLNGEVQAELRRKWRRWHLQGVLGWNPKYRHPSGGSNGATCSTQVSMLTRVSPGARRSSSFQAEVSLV

Molecule	effect on blood pressure [1]	ED50 [2] [µg/kg]	VPAC2 receptor agonist activity (VPAC2 receptor)	VPAC1 agonist activity (VPAC1)
CC[C@H](C)[C@H](NC(=O)[C@H](CO)NC(=O)[C@H](CCC(N)=O)NC(=O)[C@H](CC(C)C)NC(=O)[C@H](Cc1ccc(O)cc1)NC(=O)[C@H](CCCCN)NC(=O)[C@H](CCCCN)NC(=O)[C@H](C)NC(=O)[C@H](C)NC(=O)[C@@H](NC(=O)[C@H](CCC(N)=O)NC(=O)[C@H](CCCCN)NC(=O)[C@H](CCCNC(=N)N)NC(=O)[C@H](CC(C)C)NC(=O)[C@H](CCCNC(=N)N)NC(=O)[C@@H](NC(=O)[C@H](Cc1ccc(O)cc1)NC(=O)[C@H](CCC(N)=O)NC(=O)[C@H](CC(=O)O)NC(=O)[C@@H](NC(=O)[C@H](Cc1ccccc1)NC(=O)[C@@H](NC(=O)[C@H](C)NC(=O)[C@H](CC(=O)O)NC(=O)[C@H](CO)NC(=O)[C@@H](N)Cc1c[nH]cn1)C(C)C)[C@@H](C)O)[C@@H](C)O)C(C)C)C(=O)N[C@@H](CCCCN)C(=O)N[C@@H](CCC(N)=O)C(=O)N[C@@H](CCCCN)C(=O)N[C@@H](CCCNC(=N)N)C(=O)N[C@@H](Cc1ccc(O)cc1)C(=O)N[C@@H](CS)C(=O)O [Peptide P12]	significantly lowers blood pressure	3		
PACAP-27			potent agonist of both the VPAC1 and VPAC2 receptors	potent agonist of both the VPAC1 and VPAC2 receptors
